Test results: patent US20260248787A9, “MEDICAMENT FOR TREATING CANCER COMPRISING OPTICALLY ACTIVE AZABICYCLO RING DERIVATIVE” (Sumitomo Pharma Co., Ltd., priority 2023, published 2026)
Like-named read-outs stand apart in the source and are kept apart here.

Assay: Phase 1/2 clinical study, plasma pharmacokinetic evaluation
Format: in vivo, human
Details: human, plasma, oral
Protocol: In the present test of the present compound, PK samples have been collected in up to 24 patients dosed in dose groups of 40, 80, 100, and 120 mg BID Arm A, and in dose groups of 40 and 60 mg BID Arm B (Table 6). Large preliminary PK inter-patient variability was observed.
(1) In the present study, PK samples have been collected in up to 42 patients dosed in dose groups of 40, 80, 100, 120, 140 and 200 mg BID Arm A, and in dose groups of 40, 60, 100, and 200 mg BID Arm B (Table 15).
(2) In the present study, PK samples have been collected in patients dosed in dose groups of 40, 80, 100, 120, 140, 200, and 300 mg BID Arm A, and in dose groups of 40, 60, 100, 200, and 300 mg BID Arm B (Table 16).

[1] = 100 mg, 100 mg BID Arm A, C2D1, N=1
[2] = 100 mg, 100 mg BID Arm B, Cycle 1 Day 1, N=4, mean
[3] = 100 mg, 100 mg BID Arm B, Cycle 2 Day 1, N=4, mean
[4] = 100 mg, Cycle 1 Day 1, 100 mg BID Arm A (without azole), N=2, mean
[5] = 100 mg, Cycle 1 Day 1, 100 mg BID Arm B (with azole), N=4, mean
[6] = 100 mg, Cycle 2 Day 1, 100 mg BID Arm A (without azole), N=1
[7] = 100 mg, Cycle 2 Day 1, 100 mg BID Arm B (with azole), N=4, mean
[8] = 100 mg, Table 15 cut-off, 100 mg BID Arm A, Cycle 1 Day 1, N=2, mean
[9] = 100 mg, Table 15 cut-off, 100 mg BID Arm A, Cycle 2 Day 1, N=1
[10] = 120 mg, 120 mg BID Arm A, C1D1, N=6, mean
[11] = 120 mg, 120 mg BID Arm A, C2D1, N=6, mean
[12] = 120 mg, Cycle 1 Day 1, 120 mg BID Arm A (without azole), N=6, mean
[13] = 120 mg, Cycle 2 Day 1, 120 mg BID Arm A (without azole), N=6, mean
[14] = 120 mg, Table 15 cut-off, 120 mg BID Arm A, Cycle 1 Day 1, N=6, mean
[15] = 120 mg, Table 15 cut-off, 120 mg BID Arm A, Cycle 2 Day 1, N=6, mean
[16] = 140 mg, 140 mg BID Arm A, Cycle 1 Day 1, N=6 (incl. two patients with MDS), mean
[17] = 140 mg, 140 mg BID Arm A, Cycle 2 Day 1, N=5 (incl. two patients with MDS), mean
[18] = 140 mg, Cycle 1 Day 1, 140 mg BID Arm A (without azole), N=6 (two MDS patients included, one pt excluded), mean
[19] = 140 mg, Cycle 2 Day 1, 140 mg BID Arm A (without azole), N=5 (two MDS patients included, one pt excluded), mean
[20] = 140 mg, Cycle 2 Day 1, 140 mg BID Arm B (with azole), N=1
[21] = 200 mg, 200 mg BID Arm A, Cycle 1 Day 1, N=4, mean
[22] = 200 mg, 200 mg BID Arm B, Cycle 1 Day 1, N=6, mean
[23] = 200 mg, 200 mg BID Arm B, Cycle 2 Day 1, N=2, mean
[24] = 200 mg, Cycle 1 Day 1, 200 mg BID Arm A (without azole), N=5, mean
[25] = 200 mg, Cycle 1 Day 1, 200 mg BID Arm B (with azole), N=11, mean
[26] = 200 mg, Cycle 2 Day 1, 200 mg BID Arm A (without azole), N=3, mean
[27] = 200 mg, Cycle 2 Day 1, 200 mg BID Arm B (with azole), N=5 (three patients excluded), mean
[28] = 300 mg, Cycle 1 Day 1, 300 mg BID Arm A (without azole), N=4, mean
[29] = 300 mg, Cycle 1 Day 1, 300 mg BID Arm B (with azole), N=3 (one patient pending re-assay), mean
[30] = 300 mg, Cycle 2 Day 1, 300 mg BID Arm A (without azole), N=3, mean
[31] = 300 mg, Cycle 2 Day 1, 300 mg BID Arm B (with azole), N=1 (one patient pending re-assay)

**Q.** For `C=C1C[C@@H]2CC[C@H]1[C@@H](C(=O)N1CCC3(CC1)CN(c1ncncc1Oc1ccc(F)cc1C(=O)N(C(C)C)C(C)C)C3)N2` [the present compound, 5-fluoro-2-[(4-{7-[(1S,3S,4R)-5-methylidene-2-azabicyclo[2.2.2]octane-3-carbonyl]-2,7-diazaspiro[3.5]nonan-2-yl}pyrimidin-5-yl)oxy]-N,N-di(propan-2-yl)benzamide], which Tmax (100 mg, 100 mg BID Arm A, C1D1, N=2, mean) is on record?
**A.** 3 h

**Q.** What about the half-life (100 mg, 100 mg BID Arm A, C1D1, N=2, mean, read-out: t1/2 (converted)) of the same molecule?
**A.** 5.64 h

**Q.** What about the AUC(0-t) [1] of the same molecule?
**A.** 6060 ng·h/mL

**Q.** And the Cmax [1]?
**A.** 2840 ng/mL

**Q.** What about the Tmax [1] of the same molecule?
**A.** 1 h

**Q.** And the half-life (100 mg, 100 mg BID Arm A, C2D1, N=1, read-out: t1/2 (converted))?
**A.** 2.88 h

**Q.** And the AUC(0-t) [2]?
**A.** 5600 ng·h/mL

**Q.** What about the Cmax [2] of the same molecule?
**A.** 1650 ng/mL

**Q.** What about the AUC(0-t) [3] of the same molecule?
**A.** 8350 ng·h/mL

**Q.** What about the Cmax [3] of the same molecule?
**A.** 1810 ng/mL

**Q.** And the AUC(0-t) [4]?
**A.** 4940 ng·h/mL

**Q.** What about the Cmax [4] of the same molecule?
**A.** 1380 ng/mL

**Q.** What about the AUC(0-t) [5] of the same molecule?
**A.** 5600 ng·h/mL

**Q.** What about the Cmax [5] of the same molecule?
**A.** 1650 ng/mL

**Q.** And the AUC(0-t) [6]?
**A.** 6060 ng·h/mL

**Q.** And the Cmax [6]?
**A.** 2840 ng/mL

**Q.** What about the AUC(0-t) [7] of the same molecule?
**A.** 8350 ng·h/mL

**Q.** And the Cmax [7]?
**A.** 1810 ng/mL

**Q.** What about the AUC(0-t) [8] of the same molecule?
**A.** 4940 ng·h/mL

**Q.** And the Cmax [8]?
**A.** 1380 ng/mL

**Q.** And the AUC(0-t) [9]?
**A.** 6060 ng·h/mL

**Q.** And the Cmax [9]?
**A.** 2840 ng/mL

**Q.** And the AUC(0-t) [10]?
**A.** 6250 ng·h/mL

**Q.** And the Cmax [10]?
**A.** 2280 ng/mL

**Q.** What about the Tmax [10] of the same molecule?
**A.** 1.25 h

**Q.** And the half-life (120 mg, 120 mg BID Arm A, C1D1, N=6, mean, read-out: t1/2 (converted))?
**A.** 2.87 h

**Q.** And the AUC(0-t) [11]?
**A.** 7860 ng·h/mL

**Q.** What about the Cmax [11] of the same molecule?
**A.** 1980 ng/mL

**Q.** What about the Tmax [11] of the same molecule?
**A.** 1.2 h

**Q.** What about the half-life (120 mg, 120 mg BID Arm A, C2D1, N=6, mean, read-out: t1/2 (converted)) of the same molecule?
**A.** 3.26 h

**Q.** What about the AUC(0-t) [12] of the same molecule?
**A.** 6290 ng·h/mL

**Q.** What about the Cmax [12] of the same molecule?
**A.** 2320 ng/mL

**Q.** And the AUC(0-t) [13]?
**A.** 7970 ng·h/mL

**Q.** And the Cmax [13]?
**A.** 1980 ng/mL

**Q.** What about the AUC(0-t) [14] of the same molecule?
**A.** 6290 ng·h/mL

**Q.** What about the Cmax [14] of the same molecule?
**A.** 2320 ng/mL

**Q.** And the AUC(0-t) [15]?
**A.** 7970 ng·h/mL

**Q.** What about the Cmax [15] of the same molecule?
**A.** 1980 ng/mL

**Q.** What about the AUC(0-t) [16] of the same molecule?
**A.** 3570 ng·h/mL

**Q.** What about the Cmax [16] of the same molecule?
**A.** 1480 ng/mL

**Q.** What about the AUC(0-t) [17] of the same molecule?
**A.** 4200 ng·h/mL

**Q.** What about the Cmax [17] of the same molecule?
**A.** 1670 ng/mL

**Q.** What about the AUC(0-t) [18] of the same molecule?
**A.** 3570 ng·h/mL

**Q.** And the Cmax [18]?
**A.** 1480 ng/mL

**Q.** And the AUC(0-t) (140 mg, Cycle 1 Day 1, 140 mg BID Arm B (with azole), N=2, mean)?
**A.** 7000 ng·h/mL

**Q.** And the AUC(0-t) [19]?
**A.** 4200 ng·h/mL

**Q.** What about the Cmax [19] of the same molecule?
**A.** 1670 ng/mL

**Q.** What about the AUC(0-t) [20] of the same molecule?
**A.** 5520 ng·h/mL

**Q.** And the Cmax [20]?
**A.** 1770 ng/mL

**Q.** And the AUC(0-t) [21]?
**A.** 9650 ng·h/mL

**Q.** And the Cmax [21]?
**A.** 3850 ng/mL

**Q.** And the AUC(0-t) [22]?
**A.** 21200 ng·h/mL

**Q.** What about the Cmax [22] of the same molecule?
**A.** 6260 ng/mL

**Q.** What about the AUC(0-t) [23] of the same molecule?
**A.** 16700 ng·h/mL

**Q.** And the Cmax [23]?
**A.** 4360 ng/mL

**Q.** And the AUC(0-t) [24]?
**A.** 12100 ng·h/mL

**Q.** And the Cmax [24]?
**A.** 3870 ng/mL

**Q.** What about the AUC(0-t) [25] of the same molecule?
**A.** 21200 ng·h/mL

**Q.** What about the Cmax [25] of the same molecule?
**A.** 5700 ng/mL

**Q.** And the AUC(0-t) [26]?
**A.** 12000 ng·h/mL

**Q.** And the Cmax [26]?
**A.** 3850 ng/mL

**Q.** And the AUC(0-t) [27]?
**A.** 16800 ng·h/mL

**Q.** And the Cmax [27]?
**A.** 4070 ng/mL

**Q.** What about the AUC(0-t) [28] of the same molecule?
**A.** 15900 ng·h/mL

**Q.** And the Cmax [28]?
**A.** 6070 ng/mL

**Q.** And the AUC(0-t) [29]?
**A.** 26000 ng·h/mL

**Q.** What about the Cmax [29] of the same molecule?
**A.** 5970 ng/mL

**Q.** And the AUC(0-t) [30]?
**A.** 12400 ng·h/mL

**Q.** And the Cmax [30]?
**A.** 3060 ng/mL

**Q.** And the AUC(0-t) [31]?
**A.** 20500 ng·h/mL

**Q.** What about the Cmax [31] of the same molecule?
**A.** 4210 ng/mL

**Q.** And the half-life (Arm A (without azole), FIGS. 4A to 4D cut-off, read-out: Mean t1/2)?
**A.** 2 to 6 h

**Q.** And the half-life (Arm A, 40-120 mg BID, read-out: Mean plasma t1/2)?
**A.** 2.82 to 5.64 h

**Q.** And the half-life (Arm A, 40-200 mg BID (up to 42 patients), read-out: Mean apparent half-life)?
**A.** 2 to 5 h

**Q.** What about the half-life (Arm A, 40-300 mg BID, read-out: Mean apparent half-life) of the same molecule?
**A.** 2 to 4 h

**Q.** What about the half-life (Arm B (with azole), FIGS. 4A to 4D cut-off, read-out: Mean t1/2) of the same molecule?
**A.** 3 to 7 h

**Q.** What about the half-life (Arm B, 40-60 mg BID, read-out: Mean plasma t1/2) of the same molecule?
**A.** 2.61 to 7.29 h

**Q.** What about the half-life (Arm B, 40-200 mg BID (up to 42 patients), read-out: Mean apparent half-life) of the same molecule?
**A.** 3 to 7 h

**Q.** And the half-life (Arm B, 40-300 mg BID, read-out: Mean apparent half-life)?
**A.** 3 to 7 h

**Q.** What about the Tmax (post dose, Arms A and B, first cut-off) of the same molecule?
**A.** ≤ 2 h
